Laboratory results as given in US6737383B1, “Herbicidal oxadiazolidines” (priority 1999, dated 2004).

Key:
[1] = system: cocklebur; assay: Test B pre/postemergence cocklebur; format: in vivo, Xanthium strumarium
Method in brief: (§1)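 Test chemicals in a non-phytotoxic solvent mixture with surfactant were sprayed preemergence onto planted seeds and postemergence onto plants 2 to 18 cm tall (1- to 4-leaf stage). After twelve to sixteen days in a greenhouse, injury was visually rated against untreated controls from 0 (no effect) to 10 (complete control).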

[2] = system: soybean; assay: Test B pre/postemergence soybean; format: in vivo, Glycine max
Method in brief: as §1

[3] = system: wild oat; assay: Test B pre/postemergence wild oat; format: in vivo, Avena fatua
Method in brief: as §1

[4] = system: blackgrass; assay: Test B pre/postemergence blackgrass; format: in vivo, Alopecurus myosuroides
Method in brief: as §1

[5] = system: velvetleaf; assay: Test B pre/postemergence velvetleaf; format: in vivo, Abutilon theophrasti
Method in brief: as §1

[6] = system: rice; assay: Test B flood test rice; format: in vivo, Oryza sativa
Method in brief: (§2)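 Each value is a visual injury score relative to controls, with 10 meaning complete control and 0 no effect. Evaluation took place twelve to sixteen days after the 2-leaf-stage plants were treated and kept in the greenhouse.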

[7] = system: surinam grass; assay: Test B pre/postemergence surinam grass; format: in vivo, Brachiaria decumbens
Method in brief: as §1

[8] = system: bedstraw; assay: Test B pre/postemergence bedstraw; format: in vivo, Galium aparine; conditions: Preemergence
Method in brief: as §1

[9] = system: morningglory; assay: Test B pre/postemergence morningglory; format: in vivo, Ipomoea hederacea
Method in brief: as §1

[10] = system: corn; assay: Test B pre/postemergence corn; format: in vivo, Zea mays
Method in brief: as §1

[11] = system: bamyardgrass; assay: Test B flood test barnyardgrass; format: in vivo, Echinochloa crus-galli
Method in brief: as §2

[12] = system: wheat; assay: Test B pre/postemergence wheat; format: in vivo, Triticum aestivum
Method in brief: as §1

[13] = system: giant foxtail; assay: Test B pre/postemergence giant foxtail; format: in vivo, Setaria faberii
Method in brief: as §1

[14] = system: pigweed; assay: Test B pre/postemergence pigweed; format: in vivo, Amaranthus retroflexus
Method in brief: as §1

[15] = system: crabgrass; assay: Test B pre/postemergence crabgrass; format: in vivo, Digitaria sanguinalis
Method in brief: as §1

[16] = system: smallflower flatsedge; assay: Test B flood test smallflower flatsedge; format: in vivo, Cyperus difformis
Method in brief: as §2

[17] = Postemergence, Rate 62 g/ha, scale 0 to 10, 0 is no effect, 10 is complete control
[18] = Postemergence, Rate 125 g/ha, scale of 0 to 10 where 0 is no effect and 10 is complete control
[19] = Postemergence, Rate 250 g/ha, scale of 0 to 10, 0 is no effect, 10 is complete control
[20] = Preemergence, Rate 62 g/ha, scale of 0 to 10 where 0 is no effect and 10 is complete control
[21] = Preemergence, Rate 125 g/ha, scale of 0 to 10 where 0 is no effect and 10 is complete control
[22] = Preemergence, Rate 250 g/ha, scale 0 to 10 (0 no effect, 10 complete control)
[23] = Preemergence, Rate 500 g/ha, scale of 0 to 10 where 0 is no effect and 10 is complete control
[24] = Rate 500 g/ha, Postemergence, scale 0 to 10, 0 is no effect, 10 is complete control
[25] = Rate 62 g/ha, flood test species, Pre-emergence, visual evaluation after twelve to sixteen days
[26] = Rate 125 g/ha, under heading Pre-emergence, flood test species, visual evaluation after twelve to sixteen days
[27] = Rate 250 g/ha, Pre-emergence (flood test species), scale 0 to 10, 0 is no effect, 10 is complete control
[28] = Rate 500 g/ha, Pre-emergence section of Table B, 0 to 10 scale (0 no effect, 10 complete control)

In the case of `C=C(Cc1ccccc1)Cn1c(=O)on(C(=O)N(c2ccccc2)C(C)C)c1=O` [Compound 650], the “Plant response rating, Cocklebur” value [1, 17] was 0, the “Cocklebur plant response rating” value [1, 18] was 0 and the “Cocklebur plant response rating” value [1, 19] was 0. The “Cocklebur plant response rating” value [1, 20] was 0, the “Cocklebur plant response rating” value [1, 21] was 0 and the “Plant response rating, Cocklebur” value [1, 22] was 0. For the same compound, the “Plant response rating, Cocklebur” value [1, 23] was 0, the “Cocklebur plant response rating” value [1, 24] was 0 and the “Plant response rating, Soybean” value [2, 17] was 2. The “Soybean plant response rating” value [2, 18] was 4, the “Soybean plant response rating” value [2, 20] was 0 and the “Soybean plant response rating” value [2, 21] was 0. The “Plant response rating, Soybean” value [2, 22] was 0, the “Plant response rating, Soybean” value [2, 23] was 0 and the “Soybean plant response rating” value [2, 24] was 5. For the same compound, the “Plant response rating, Wild oats” value [3, 17] was 0, the “Wild oats plant response rating” value [3, 18] was 0 and the “Wild oats plant response rating” value [3, 20] was 0. For the same compound, the “Wild oats plant response rating” value [3, 21] was 0, the “Plant response rating, Wild oats” value [3, 22] was 0 and the “Plant response rating, Wild oats” value [3, 23] was 0. The “Wild oats plant response rating” value [3, 24] was 0, the “Plant response rating, Blackgrass” value [4, 17] was 0 and the “Blackgrass plant response rating” value [4, 18] was 0. For the same compound, the “Blackgrass plant response rating” value [4, 19] was 0, the “Blackgrass plant response rating” value [4, 20] was 0 and the “Blackgrass plant response rating” value [4, 21] was 0. For the same compound, the “Plant response rating, Blackgrass” value [4, 22] was 0, the “Plant response rating, Blackgrass” value [4, 23] was 3 and the “Blackgrass plant response rating” value [4, 24] was 3. For the same compound, the “Plant response rating, Velvetleaf” value [5, 17] was 0, the “Velvetleaf plant response rating” value [5, 18] was 0 and the “Velvetleaf plant response rating” value [5, 20] was 0. For the same compound, the “Velvetleaf plant response rating” value [5, 21] was 0, the “Plant response rating, Velvetleaf” value [5, 22] was 0 and the “Plant response rating, Velvetleaf” value [5, 23] was 0. The “Velvetleaf plant response rating” value [5, 24] was 2, the “Plant response rating, Rice (0 to 10 scale, 0 is no effect, 10 is complete control)” value [6, 25] was 0 and the “Rice plant response rating (0 to 10 scale, 0 is no effect, 10 is complete control)” value [6, 26] was 0. For the same compound, the “Rice plant response rating” value [6, 27] was 0, the “Rice plant response rating” value [6, 28] was 0 and the “Plant response rating, B. signalgrass” value [7, 17] was 0. The “Plant response rating, B. signalgrass” value [7, 18] was 0, the “B. signalgrass plant response rating” value [7, 19] was 0 and the “B. signalgrass plant response rating” value [7, 20] was 0. The “B. signalgrass plant response rating” value [7, 21] was 0, the “Plant response rating, B. signalgrass” value [7, 22] was 0 and the “Plant response rating, B. signalgrass” value [7, 23] was 4. The “B. signalgrass plant response rating” value [7, 24] was 2, the “Bedstraw plant response rating” value ([8]; Rate 62 g/ha, scale of 0 to 10 where 0 is no effect and 10 is complete control) was 0 and the “Bedstraw plant response rating” value ([8]; Rate 125 g/ha, scale of 0 to 10 where 0 is no effect and 10 is complete control) was 0. The “Plant response rating, Bedstraw” value ([8]; Rate 250 g/ha, scale 0 to 10 (0 no effect, 10 complete control)) was 0, the “Plant response rating, Bedstraw” value ([8]; Rate 500 g/ha, scale of 0 to 10 where 0 is no effect and 10 is complete control) was 5 and the “Plant response rating, Morningglory” value [9, 17] was 4. For the same compound, the “Morningglory plant response rating” value [9, 18] was 10, the “Morningglory plant response rating” value [9, 19] was 10 and the “Morningglory plant response rating” value [9, 20] was 0. For the same compound, the “Morningglory plant response rating” value [9, 21] was 0, the “Plant response rating, Morningglory” value [9, 22] was 1 and the “Plant response rating, Morningglory” value [9, 23] was 1. For the same compound, the “Morningglory plant response rating” value [9, 24] was 10, the “Plant response rating, Corn” value [10, 17] was 0 and the “Corn plant response rating” value [10, 18] was 0. The “Corn plant response rating” value [10, 19] was 2, the “Corn plant response rating” value [10, 20] was 0 and the “Corn plant response rating” value [10, 21] was 0. For the same compound, the “Plant response rating, Corn” value [10, 22] was 0, the “Plant response rating, Corn” value [10, 23] was 0 and the “Corn plant response rating” value [10, 24] was 4. For the same compound, the “Plant response rating, Barnyardgrass (0 to 10 scale, 0 is no effect, 10 is complete control)” value [11, 25] was 0, the “Barnyardgrass plant response rating (0 to 10 scale, 0 is no effect, 10 is complete control)” value [11, 26] was 0 and the “Barnyardgrass plant response rating” value [11, 27] was 0. The “Barnyardgrass plant response rating” value [11, 28] was 0, the “Plant response rating, Wheat” value [12, 17] was 0 and the “Wheat plant response rating” value [12, 18] was 0. The “Wheat plant response rating” value [12, 20] was 0, the “Wheat plant response rating” value [12, 21] was 0 and the “Plant response rating, Wheat” value [12, 22] was 0. The “Plant response rating, Wheat” value [12, 23] was 0, the “Wheat plant response rating” value [12, 24] was 0 and the “Plant response rating, Giant foxtail” value [13, 17] was 0. For the same compound, the “Giant foxtail plant response rating” value [13, 18] was 2, the “Giant foxtail plant response rating” value [13, 19] was 8 and the “Giant foxtail plant response rating” value [13, 20] was 7. The “Giant foxtail plant response rating” value [13, 21] was 10, the “Plant response rating, Giant foxtail” value [13, 22] was 10 and the “Plant response rating, Giant foxtail” value [13, 23] was 10. For the same compound, the “Giant foxtail plant response rating” value [13, 24] was 8, the “Plant response rating, Redroot pigweed” value [14, 17] was 2 and the “Redroot pigweed plant response rating” value [14, 18] was 6. For the same compound, the “Redroot pigweed plant response rating” value [14, 20] was 1, the “Redroot pigweed plant response rating” value [14, 21] was 7 and the “Plant response rating, Redroot pigweed” value [14, 22] was 7. For the same compound, the “Plant response rating, Redroot pigweed” value [14, 23] was 9, the “Redroot pigweed plant response rating” value [14, 24] was 6 and the “Plant response rating, Crabgrass” value [15, 17] was 0. The “Crabgrass plant response rating” value [15, 18] was 1, the “Crabgrass plant response rating” value [15, 19] was 7 and the “Crabgrass plant response rating” value [15, 20] was 3. The “Crabgrass plant response rating” value [15, 21] was 8, the “Plant response rating, Crabgrass” value [15, 22] was 9 and the “Plant response rating, Crabgrass” value [15, 23] was 9. The “Crabgrass plant response rating” value [15, 24] was 9, the “Plant response rating, S. Flatsedge (0 to 10 scale, 0 is no effect, 10 is complete control)” value [16, 25] was 0 and the “S. Flatsedge plant response rating (0 to 10 scale, 0 is no effect, 10 is complete control)” value [16, 26] was 0. The “S. Flatsedge plant response rating” value [16, 27] was 0 and the “S. Flatsedge plant response rating” value [16, 28] was 0.
